Measured values from ChEMBL document CHEMBL4507306, “Data for DCP probe KISS1-305” (2021).
Calls of active or inactive are those of the source. No cut-off for these calls is given here. Square brackets hold non-standard residues; d marks the D form. Peptide text beside a SMILES is read from it. Arg(Me) = CNC(=N)NCCC[C@H](N)C(=O)O; d3Pal = N[C@H](Cc1cccnc1)C(=O)O; d4Pal = N[C@H](Cc1ccncc1)C(=O)O; azaGly = NNC(=O)O

What was measured:
[1] = biological target: T1, GABA-A receptor; anion channel (Rattus norvegicus) (UniProt O09028+P15431+P18506+P18508+P19969+P20236+P23574+P23576+P28471+P28473+P30191+P62813+P63079+P63138+Q91ZM7+Q9ES14); details: Compound concentration 1.0 uM
[2] = biological target: 5-hydroxytryptamine receptor 1B (Homo sapiens) (UniProt P28222); details: Compound concentration 1.0 uM
[3] = biological target: Histamine H1 receptor (Homo sapiens) (UniProt P35367); details: Compound concentration 1.0 uM
[4] = biological target: Histamine H2 receptor (Homo sapiens) (UniProt P25021); details: Compound concentration 1.0 uM
[5] = biological target: Alpha-1A adrenergic receptor (Homo sapiens) (UniProt P35348); details: Compound concentration 1.0 uM
[6] = biological target: 5-hydroxytryptamine receptor 1D (Homo sapiens) (UniProt P28221); details: Compound concentration 1.0 uM
[7] = biological target: 5-hydroxytryptamine receptor 1A (Homo sapiens) (UniProt P08908); details: Compound concentration 1.0 uM
[8] = biological target: Sodium-dependent serotonin transporter (Homo sapiens) (UniProt P31645); details: Compound concentration 1.0 uM
[9] = biological target: 5-hydroxytryptamine receptor 6 (Homo sapiens) (UniProt P50406); details: Compound concentration 1.0 uM
[10] = biological target: Beta-2 adrenergic receptor (Homo sapiens) (UniProt P07550); details: Compound concentration 1.0 uM
[11] = biological target: D(1B) dopamine receptor (Homo sapiens) (UniProt P21918); details: Compound concentration 1.0 uM
[12] = biological target: 5-hydroxytryptamine receptor 2B (Homo sapiens) (UniProt P41595); details: Compound concentration 1.0 uM
[13] = biological target: Muscarinic acetylcholine receptor M3 (Homo sapiens) (UniProt P20309); details: Compound concentration 1.0 uM
[14] = biological target: Muscarinic acetylcholine receptor M4 (Homo sapiens) (UniProt P08173); details: Compound concentration 1.0 uM
[15] = biological target: T1, GABA-A receptor; anion channel (Rattus norvegicus); details: Compound concentration 1.0 uM; remark: listed apart in the source
[16] = biological target: Muscarinic acetylcholine receptor M1 (Homo sapiens) (UniProt P11229); details: Compound concentration 1.0 uM
Rattus norvegicus = organism: Rattus norvegicus; details: Compound concentration 1.0 uM
[17] = biological target: Muscarinic acetylcholine receptor M5 (Homo sapiens) (UniProt P08912); details: Compound concentration 1.0 uM
[18] = biological target: D(3) dopamine receptor (Homo sapiens) (UniProt P35462); details: Compound concentration 1.0 uM
[19] = biological target: D(1A) dopamine receptor (Homo sapiens) (UniProt P21728); details: Compound concentration 1.0 uM
[20] = biological target: Delta-type opioid receptor (Homo sapiens, UniProt P41143); experiment: GPCRScan assay: inhibition of DOR; design: radioligand conc. used [nm] 1.0 – 2.0, parental cells stable HEK
[21] = biological target: D(2) dopamine receptor (Homo sapiens) (UniProt P14416); details: Compound concentration 1.0 uM
[22] = biological target: Beta-3 adrenergic receptor (Homo sapiens) (UniProt P13945); details: Compound concentration 1.0 uM
[23] = biological target: Kappa-type opioid receptor (Homo sapiens) (UniProt P41145); details: Compound concentration 1.0 uM
[24] = Cellular activity assay: GPR54 expressing cell growth
[25] = biological target: Alpha-2C adrenergic receptor (Homo sapiens) (UniProt P18825); details: Compound concentration 1.0 uM
[26] = biological target: Alpha-1D adrenergic receptor (Homo sapiens) (UniProt P25100); details: Compound concentration 1.0 uM
[27] = biological target: Beta-1 adrenergic receptor (Homo sapiens) (UniProt P08588); details: Compound concentration 1.0 uM
[28] = biological target: Sigma intracellular receptor 2 (Homo sapiens) (UniProt Q5BJF2); details: Compound concentration 1.0 uM
[29] = biological target: Alpha-2A adrenergic receptor (Homo sapiens) (UniProt P08913); details: Compound concentration 1.0 uM
[30] = biological target: Histamine H3 receptor (Homo sapiens) (UniProt Q9Y5N1); details: Compound concentration 1.0 uM
[31] = biological target: 5-hydroxytryptamine receptor 7 (Homo sapiens) (UniProt P34969); details: Compound concentration 1.0 uM
[32] = biological target: Histamine H4 receptor (Homo sapiens) (UniProt Q9H3N8); details: Compound concentration 1.0 uM
[33] = biological target: Sodium-dependent noradrenaline transporter (Homo sapiens) (UniProt P23975); details: Compound concentration 1.0 uM
[34] = biological target: Sigma non-opioid intracellular receptor 1 (Homo sapiens) (UniProt Q99720); details: Compound concentration 1.0 uM
[35] = biological target: Alpha-2B adrenergic receptor (Homo sapiens) (UniProt P18089); details: Compound concentration 1.0 uM
[36] = biological target: Muscarinic acetylcholine receptor M2 (Homo sapiens) (UniProt P08172); details: Compound concentration 1.0 uM
[37] = biological target: Alpha-1B adrenergic receptor (Homo sapiens) (UniProt P35368); details: Compound concentration 1.0 uM
[38] = biological target: 5-hydroxytryptamine receptor 5A (Homo sapiens) (UniProt P47898); details: Compound concentration 1.0 uM
[39] = biological target: Mu-type opioid receptor (Homo sapiens) (UniProt P35372); details: Compound concentration 1.0 uM
[40] = biological target: 5-hydroxytryptamine receptor 2C (Homo sapiens) (UniProt P28335); details: Compound concentration 1.0 uM
[41] = biological target: 5-hydroxytryptamine receptor 1E (Homo sapiens) (UniProt P28566); details: Compound concentration 1.0 uM
[42] = biological target: Sodium-dependent dopamine transporter (Homo sapiens) (UniProt Q01959); details: Compound concentration 1.0 uM
[43] = biological target: 5-hydroxytryptamine receptor 3A (Homo sapiens) (UniProt P46098); details: Compound concentration 1.0 uM
[44] = biological target: 5-hydroxytryptamine receptor 2A (Homo sapiens) (UniProt P28223); details: Compound concentration 1.0 uM
KiSS-1 receptor = KiSS-1 receptor (Homo sapiens, UniProt Q969F8); experiment: Agonist activity for hGPR54 (C-terminal ethyl amide)
[45] = biological target: D(4) dopamine receptor (Homo sapiens) (UniProt P21917); details: Compound concentration 1.0 uM

Beta-3 adrenergic receptor (Homo sapiens), sequence (P13945 whole entry, looked up): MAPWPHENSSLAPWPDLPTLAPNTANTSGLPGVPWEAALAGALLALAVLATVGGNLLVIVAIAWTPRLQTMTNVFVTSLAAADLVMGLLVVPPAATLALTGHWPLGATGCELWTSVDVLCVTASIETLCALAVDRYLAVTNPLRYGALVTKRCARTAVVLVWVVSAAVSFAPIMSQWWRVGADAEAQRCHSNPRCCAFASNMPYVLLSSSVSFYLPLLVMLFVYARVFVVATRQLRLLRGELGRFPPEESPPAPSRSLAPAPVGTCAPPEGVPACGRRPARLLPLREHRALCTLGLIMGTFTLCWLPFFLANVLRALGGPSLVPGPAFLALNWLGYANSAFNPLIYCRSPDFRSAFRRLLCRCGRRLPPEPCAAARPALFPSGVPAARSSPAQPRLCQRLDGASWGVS
Alpha-2B adrenergic receptor (Homo sapiens), sequence (P18089 whole entry): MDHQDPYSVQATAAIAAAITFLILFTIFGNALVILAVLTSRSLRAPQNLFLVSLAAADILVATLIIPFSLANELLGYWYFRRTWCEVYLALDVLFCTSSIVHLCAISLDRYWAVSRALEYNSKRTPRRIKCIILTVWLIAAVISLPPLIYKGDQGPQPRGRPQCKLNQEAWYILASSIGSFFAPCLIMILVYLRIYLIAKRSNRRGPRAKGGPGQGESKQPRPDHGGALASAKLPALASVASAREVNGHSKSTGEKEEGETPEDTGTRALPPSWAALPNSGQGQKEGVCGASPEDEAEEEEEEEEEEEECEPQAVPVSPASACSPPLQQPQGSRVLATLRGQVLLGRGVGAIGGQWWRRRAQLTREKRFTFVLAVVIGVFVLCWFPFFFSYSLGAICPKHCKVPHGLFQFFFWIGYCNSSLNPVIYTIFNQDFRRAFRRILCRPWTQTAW
Histamine H2 receptor (Homo sapiens), sequence (P25021 whole entry): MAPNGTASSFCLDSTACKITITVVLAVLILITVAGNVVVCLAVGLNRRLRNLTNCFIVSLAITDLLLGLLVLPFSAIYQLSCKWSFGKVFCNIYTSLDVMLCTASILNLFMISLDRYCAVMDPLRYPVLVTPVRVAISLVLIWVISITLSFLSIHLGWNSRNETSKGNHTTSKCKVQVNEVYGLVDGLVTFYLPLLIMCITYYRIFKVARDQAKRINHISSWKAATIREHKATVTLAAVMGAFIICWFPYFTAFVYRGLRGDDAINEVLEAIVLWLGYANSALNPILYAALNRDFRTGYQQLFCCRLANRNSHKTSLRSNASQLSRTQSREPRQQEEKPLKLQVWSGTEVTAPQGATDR
D(2) dopamine receptor (Homo sapiens), sequence (P14416 whole entry): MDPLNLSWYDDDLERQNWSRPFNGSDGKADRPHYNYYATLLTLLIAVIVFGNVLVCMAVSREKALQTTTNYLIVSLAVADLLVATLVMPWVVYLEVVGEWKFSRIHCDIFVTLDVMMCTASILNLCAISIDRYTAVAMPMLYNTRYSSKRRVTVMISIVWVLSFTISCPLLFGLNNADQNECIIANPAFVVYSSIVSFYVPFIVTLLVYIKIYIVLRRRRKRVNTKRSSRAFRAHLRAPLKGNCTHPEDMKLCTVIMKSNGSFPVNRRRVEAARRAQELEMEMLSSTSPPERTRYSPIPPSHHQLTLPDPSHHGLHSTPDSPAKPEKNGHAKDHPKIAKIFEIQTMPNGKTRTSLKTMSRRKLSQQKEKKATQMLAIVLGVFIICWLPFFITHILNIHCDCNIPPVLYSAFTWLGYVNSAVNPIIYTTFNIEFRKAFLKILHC
D(3) dopamine receptor (Homo sapiens), sequence (P35462 whole entry): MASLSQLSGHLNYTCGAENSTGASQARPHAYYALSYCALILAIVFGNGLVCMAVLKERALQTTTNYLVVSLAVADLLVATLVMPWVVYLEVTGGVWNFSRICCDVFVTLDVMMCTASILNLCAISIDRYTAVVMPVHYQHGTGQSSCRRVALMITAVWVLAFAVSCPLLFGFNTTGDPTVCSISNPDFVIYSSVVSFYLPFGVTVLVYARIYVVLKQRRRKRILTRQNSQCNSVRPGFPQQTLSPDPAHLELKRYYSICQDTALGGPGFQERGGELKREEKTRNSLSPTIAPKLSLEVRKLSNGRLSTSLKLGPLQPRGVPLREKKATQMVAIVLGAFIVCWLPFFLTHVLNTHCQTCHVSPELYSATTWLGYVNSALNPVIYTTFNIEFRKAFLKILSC
Beta-1 adrenergic receptor (Homo sapiens), sequence (P08588 whole entry, looked up): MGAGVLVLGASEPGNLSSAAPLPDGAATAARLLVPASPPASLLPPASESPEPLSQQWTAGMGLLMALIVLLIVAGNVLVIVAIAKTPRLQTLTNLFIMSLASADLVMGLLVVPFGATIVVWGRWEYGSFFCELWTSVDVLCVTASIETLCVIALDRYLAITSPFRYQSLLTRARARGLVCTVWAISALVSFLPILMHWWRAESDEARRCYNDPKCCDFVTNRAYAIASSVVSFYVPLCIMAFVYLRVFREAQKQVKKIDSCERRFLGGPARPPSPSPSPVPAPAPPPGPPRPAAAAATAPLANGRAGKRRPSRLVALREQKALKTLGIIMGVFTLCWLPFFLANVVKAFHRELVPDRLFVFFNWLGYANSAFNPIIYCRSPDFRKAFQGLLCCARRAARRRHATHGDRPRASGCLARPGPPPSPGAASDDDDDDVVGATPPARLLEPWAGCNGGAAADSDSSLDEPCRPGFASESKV
D(1A) dopamine receptor (Homo sapiens), sequence (P21728 whole entry): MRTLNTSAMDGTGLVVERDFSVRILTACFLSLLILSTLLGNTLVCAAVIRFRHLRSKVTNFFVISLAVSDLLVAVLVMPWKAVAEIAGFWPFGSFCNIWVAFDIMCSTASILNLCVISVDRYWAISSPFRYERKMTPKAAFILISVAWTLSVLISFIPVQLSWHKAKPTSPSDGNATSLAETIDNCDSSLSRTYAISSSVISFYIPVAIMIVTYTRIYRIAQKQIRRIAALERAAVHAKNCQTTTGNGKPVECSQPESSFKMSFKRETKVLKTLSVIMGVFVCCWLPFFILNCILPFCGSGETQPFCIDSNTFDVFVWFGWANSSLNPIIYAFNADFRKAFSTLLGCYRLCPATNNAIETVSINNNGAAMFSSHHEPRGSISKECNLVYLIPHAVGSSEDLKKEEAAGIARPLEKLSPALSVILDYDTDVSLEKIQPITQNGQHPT
Alpha-2A adrenergic receptor (Homo sapiens), sequence (P08913 whole entry): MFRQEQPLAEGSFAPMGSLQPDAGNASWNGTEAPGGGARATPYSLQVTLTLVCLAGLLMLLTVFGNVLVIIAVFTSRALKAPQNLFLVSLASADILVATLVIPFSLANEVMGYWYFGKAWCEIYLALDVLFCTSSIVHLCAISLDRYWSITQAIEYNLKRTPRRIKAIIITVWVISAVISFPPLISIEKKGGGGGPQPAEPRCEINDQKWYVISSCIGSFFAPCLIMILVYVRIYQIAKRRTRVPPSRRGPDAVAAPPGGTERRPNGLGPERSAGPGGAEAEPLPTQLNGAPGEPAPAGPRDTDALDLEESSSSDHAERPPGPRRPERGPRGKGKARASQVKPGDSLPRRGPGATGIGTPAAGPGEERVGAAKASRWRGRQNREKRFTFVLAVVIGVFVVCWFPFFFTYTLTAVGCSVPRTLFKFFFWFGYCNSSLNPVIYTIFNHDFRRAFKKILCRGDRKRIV
5-hydroxytryptamine receptor 7 (Homo sapiens), sequence (P34969 whole entry): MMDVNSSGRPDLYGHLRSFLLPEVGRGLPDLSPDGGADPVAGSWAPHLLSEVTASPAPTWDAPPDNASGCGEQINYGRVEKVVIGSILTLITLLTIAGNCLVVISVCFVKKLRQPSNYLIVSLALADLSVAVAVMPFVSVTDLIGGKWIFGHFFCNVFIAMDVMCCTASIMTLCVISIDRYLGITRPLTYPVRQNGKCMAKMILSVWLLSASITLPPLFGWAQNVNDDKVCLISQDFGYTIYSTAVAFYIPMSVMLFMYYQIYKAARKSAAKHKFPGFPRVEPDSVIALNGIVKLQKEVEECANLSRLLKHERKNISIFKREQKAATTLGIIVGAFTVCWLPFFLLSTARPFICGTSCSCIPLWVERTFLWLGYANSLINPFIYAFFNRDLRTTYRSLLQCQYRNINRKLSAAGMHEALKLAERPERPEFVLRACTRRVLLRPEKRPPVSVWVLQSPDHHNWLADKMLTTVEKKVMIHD
Alpha-2C adrenergic receptor (Homo sapiens), sequence (P18825 whole entry): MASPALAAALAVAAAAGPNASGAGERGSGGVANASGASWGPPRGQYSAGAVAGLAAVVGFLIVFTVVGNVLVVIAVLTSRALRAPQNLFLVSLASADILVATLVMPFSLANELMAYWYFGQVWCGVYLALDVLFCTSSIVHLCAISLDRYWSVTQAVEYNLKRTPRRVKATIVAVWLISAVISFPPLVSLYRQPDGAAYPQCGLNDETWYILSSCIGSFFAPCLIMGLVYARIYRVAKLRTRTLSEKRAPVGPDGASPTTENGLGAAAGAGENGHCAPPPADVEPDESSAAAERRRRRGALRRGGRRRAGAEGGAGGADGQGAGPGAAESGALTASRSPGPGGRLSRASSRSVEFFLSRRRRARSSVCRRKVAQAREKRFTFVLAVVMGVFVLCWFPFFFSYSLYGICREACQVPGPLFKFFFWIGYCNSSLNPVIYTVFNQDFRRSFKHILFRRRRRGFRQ
5-hydroxytryptamine receptor 1E (Homo sapiens), sequence (P28566 whole entry): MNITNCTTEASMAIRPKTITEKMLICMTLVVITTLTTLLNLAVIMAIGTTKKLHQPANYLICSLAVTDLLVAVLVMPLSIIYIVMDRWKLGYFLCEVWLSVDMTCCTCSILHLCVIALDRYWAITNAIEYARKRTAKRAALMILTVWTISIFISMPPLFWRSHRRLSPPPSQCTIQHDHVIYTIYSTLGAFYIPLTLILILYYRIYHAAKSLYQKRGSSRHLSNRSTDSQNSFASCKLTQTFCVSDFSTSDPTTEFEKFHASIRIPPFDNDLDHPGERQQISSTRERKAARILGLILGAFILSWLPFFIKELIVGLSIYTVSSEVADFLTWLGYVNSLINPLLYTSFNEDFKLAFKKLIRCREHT
Sigma intracellular receptor 2 (Homo sapiens), sequence (Q5BJF2 whole entry): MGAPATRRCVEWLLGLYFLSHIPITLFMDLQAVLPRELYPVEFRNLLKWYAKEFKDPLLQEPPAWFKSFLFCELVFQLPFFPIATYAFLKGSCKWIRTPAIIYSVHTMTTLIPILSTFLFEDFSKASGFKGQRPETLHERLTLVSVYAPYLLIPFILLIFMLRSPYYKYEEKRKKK

`CNC(=N)NCCC[C@H](NC(=O)[C@H](CC(C)C)NC(=O)NNC(=O)[C@H](Cc1ccccc1)NC(=O)[C@H](CO)NC(=O)[C@H](CC(N)=O)NC(=O)[C@@H](Cc1ccncc1)NC(=O)[C@H](N)Cc1ccc(O)cc1)C(=O)N[C@@H](Cc1ccccc1)C(N)=O` [KISS1-305] (H-[dY][d4Pal]NSF[azaGly]L[Arg(Me)]F-NH2) gave an inhibition [1] of 13.6%, an inhibition [2] of 29.3% and an inhibition [3] of 19.9%. For the same molecule, the inhibition [4] was 4.38%, the inhibition [5] was -9.06% and the inhibition [6] was 10.4%. For the same molecule, the inhibition [7] was 18.5%, the inhibition [8] was 8.84% and the inhibition [9] was 4.93%. The inhibition [10] was 1.39%, the inhibition [11] was 0.512% and the inhibition [12] was 1.13%. For the same molecule, the inhibition [13] was 10.7%, the inhibition [14] was 13.8% and the inhibition [15] was 1.39%. For the same molecule, the inhibition [16] was 2.17%, the inhibition (Rattus norvegicus) was 31.4% and the inhibition [17] was 14.9%. For the same molecule, the inhibition [18] was -8.85%, the inhibition [19] was -7.58% and the Ki ([20]; read-out: Ki) was 47.5 nM. It also gave a Ki ([20]; read-out: pKi (converted)) of 44.7 nM, an inhibition [21] of 0.859% and an inhibition [22] of 7.09%. For the same molecule, the inhibition [23] was -6.31%, the IC50 [24] was 8.94 nM (active) and the inhibition [25] was 4.19%. The inhibition [26] was 13.9%, the inhibition [27] was 0.557% and the inhibition [28] was -5.31%. It also gave an inhibition [29] of 8.6%, an inhibition [30] of 43.3% and an inhibition [31] of -2.33%. It also gave an inhibition [32] of 10.4%, an inhibition [33] of 5.4% and an inhibition [34] of 3.72%. For the same molecule, the inhibition [35] was 17.6%, the inhibition [36] was 25.1% and the inhibition [37] was -7.65%. For the same molecule, the inhibition [38] was 20.1%, the inhibition [39] was -4.62% and the inhibition [40] was 12.8%. It also gave an inhibition [41] of 24.1% and an inhibition [42] of 12%.
`CNC(=N)NCCC[C@H](NC(=O)[C@H](CC(C)C)NC(=O)NNC(=O)[C@H](Cc1ccccc1)NC(=O)[C@H](CO)NC(=O)[C@H](CC(N)=O)NC(=O)[C@@H](Cc1cccnc1)NC(=O)[C@H](N)Cc1ccc(O)cc1)C(=O)NCC(N)=O` [KISS1-543] (H-[dY][d3Pal]NSF[azaGly]L[Arg(Me)]G-NH2) gave an inhibition [1] of 12.3%, an inhibition [2] of 31% and an inhibition [4] of 3.31%. The inhibition [6] was 12.4%, the inhibition [7] was 30.9% and the inhibition [8] was -0.408%. The inhibition [9] was -0.513%, the inhibition [10] was -2.89% and the inhibition [43] was -8.29%. For the same molecule, the inhibition [11] was 29.2%, the inhibition [12] was 11.3% and the inhibition [13] was 24.7%. For the same molecule, the inhibition [14] was 18.5%, the inhibition [15] was 15.5% and the inhibition [16] was 15.1%. For the same molecule, the inhibition (Rattus norvegicus) was 15.6%, the inhibition [17] was 12.3% and the inhibition [18] was -3.9%. It also gave an inhibition [44] of 16.9%, an inhibition [19] of -0.599% and an inhibition [21] of 9.68%. For the same molecule, the inhibition [22] was 2.7%, the inhibition [23] was -5.75% and the inhibition [25] was -0.48%. The inhibition [26] was 9.13%, the inhibition [27] was 3.41% and the inhibition [28] was -8.74%. For the same molecule, the inhibition [29] was 10.2%, the inhibition [30] was 12.5% and the EC50 (KiSS-1 receptor) was > 1000 nM (not active). It also gave an inhibition [31] of -6.69%, an inhibition [32] of -3.39% and an inhibition [33] of -1.33%. It also gave an inhibition [34] of 0.205%, an inhibition [35] of 14.5% and an inhibition [36] of 40.7%. For the same molecule, the inhibition [37] was -2.08%, the inhibition [45] was -9.83% and the inhibition [38] was 16.3%. The inhibition [39] was -7.85%, the inhibition [40] was -2.67% and the inhibition [41] was 27.9%. It also gave an inhibition [42] of 10.4%.
